Measured values as given in patent publication US20120122727A1, “IN VITRO METHOD FOR PREDICTING WHETHER A COMPOUND IS GENOTOXIC IN VIVO” (priority 2009, published 2012).

System: primary mouse hepatocytes
Test: Gene expression (Affymetrix Mouse Genome 430 2.0) in primary mouse hepatocytes, true vs false GTX, 24 h and 48 h
Conditions: log2, corrected for vehicle control

Question: Which results are given for `O=c1c(O)c(-c2ccc(O)c(O)c2)oc2cc(O)cc(O)c12` [Q, Quercetin]?
Answer: Gene expression data AF000969 (Cadps2) (24 h average): −0.5753; Gene expression data AF022072 (Grb10) (24 h average): 0.3385; Gene expression data AF065917 (Lif) (24 h average): −0.1024; Gene expression data AF204959 (Cyp3a25 /// LOC622249) (24 h average): −1.232; Gene expression data AF297615 (Ggta1) (24 h average): 0.8047; Gene expression data AI594683 (Dmn) (24 h average): −0.2712; Gene expression data AI596632 (Ptprg /// LOC632664) (24 h average): −0.456; Gene expression data AI987929 (Ndrg1) (24 h average): 1.663; Gene expression data AK004419 (Fbxl17) (24 h average): −0.01537; Gene expression data AK005731 (1700007K13Rik) (24 h average): 0.6919; Gene expression data AK007766 (1810044A24Rik) (24 h average): −0.04463; Gene expression data AK007854 (1810053B23Rik) (24 h average): −0.9336; Gene expression data AK009736 (Gpr137b /// LOC664862 /// LOC673335) (24 h average): 1.171; Gene expression data AK010447 (Smyd3) (24 h average): 0.0701; Gene expression data AK014608 (4632434l11Rik) (24 h average): 0.03273; Gene expression data AK019979 (2610528E23Rik) (24 h average): 0.2502; Gene expression data AV095209 (Mthfd1l) (24 h average): 0.8331; Gene expression data AV141095 (1110033M05Rik) (24 h average): 0.2855; Gene expression data AV173571 (1700106N22Rik) (24 h average): −0.2484; Gene expression data AV219418 (Ldhb) (24 h average): −0.1808; Gene expression data AV223474 (Zdhhc14) (24 h average): −0.2496; Gene expression data AV298304 (Homez) (24 h average): 0.2496; Gene expression data AV327248 (Zfp365 /// LOC674611) (24 h average): 0.3116; Gene expression data AV377066 (9130221J18Rik) (24 h average): −0.4922; Gene expression data AW240761 (Tbc1d5) (24 h average): −0.157; Gene expression data AW543460 (Pard3) (24 h average): 0.2437; Gene expression data AW543723 (24 h average): 0.4193; Gene expression data AW986246 (Maoa) (24 h average): 1.388; Gene expression data BB027848 (4732466D17Rik) (24 h average): −1.304; Gene expression data BB043558 (9230114K14Rik) (24 h average): 0.3431; Gene expression data BB275142 (AW456874) (24 h average): −0.5004; Gene expression data BB308836 (Ppm1l) (24 h average): 0.1666; Gene expression data BB318221 (Zdhhc14) (24 h average): −0.1479; Gene expression data BB463610 (4632434l11Rik) (24 h average): −0.1026; Gene expression data BB526605 (Mipol1) (24 h average): 0.09617; Gene expression data BB770528 (Rai2) (24 h average): −0.3109; Gene expression data BB821363 (Scfd2) (24 h average): −0.2338; Gene expression data BC004827 (Psat1) (24 h average): 0.9258; Gene expression data BC008626 (Icam1) (24 h average): −0.3725; Gene expression data BC010462 (BC010462) (24 h average): −0.5852; Gene expression data BC012247 (Dcxr) (24 h average): −0.2845; Gene expression data BC012260 (Psmf1) (24 h average): −0.1689; Gene expression data BC015270 (Hist2h3c2) (24 h average): −0.3924; Gene expression data BC016073 (Cdkal1) (24 h average): 0.1993; Gene expression data BC016265 (Ube2e2) (24 h average): 0.1622; Gene expression data BC019882 (Acaa1b) (24 h average): 0.7124; Gene expression data BC025501 (Aaas) (24 h average): 0.4589; Gene expression data BC025837 (Sbk1) (24 h average): −0.3383; Gene expression data BC025915 (Cova1) (24 h average): 0.3176; Gene expression data BC026422 (Tgm1) (24 h average): 0.28; Gene expression data BF719766 (Thyn1) (24 h average): 0.1596; Gene expression data BG065754 (Ccng1) (24 h average): 0.4829; Gene expression data BG066903 (Kif16b) (24 h average): 0.2506; Gene expression data BG069873 (Gnb1l) (24 h average): 0.007867; Gene expression data BG070887 (Gtdc1) (24 h average): −0.2209; Gene expression data BG076151 (Ppm1d) (24 h average): −0.1367; Gene expression data BG261907 (Large) (24 h average): 0.3964; Gene expression data BI651416 (Cdc42bpg) (24 h average): 0.2653; Gene expression data BI660702 (Ell3) (24 h average): −0.05897; Gene expression data BM198879 (Ercc5) (24 h average): 0.1402; Gene expression data BM230508 (A030007D23Rik) (24 h average): 0.3449; Gene expression data NM_007987 (Fas) (24 h average): 0.1744; Gene expression data NM_008522 (Ltf) (24 h average): −0.09593; Gene expression data NM_008576 (Abcc1) (24 h average): 1.2925; Gene expression data NM_011176 (St14) (24 h average): 0.5914; Gene expression data NM_011316 (Saa4) (24 h average): −0.1314; Gene expression data NM_012006 (Acot1) (24 h average): 1.0762; Gene expression data NM_013866 (Zfp385) (24 h average): 0.06543; Gene expression data NM_018770 (Igsf4a) (24 h average): 0.4689; Gene expression data NM_021451 (Pmaip1) (24 h average): −0.611; Gene expression data NM_025770 (Atg10) (24 h average): 0.2663; Gene expression data NM_028803 (Gbe1) (24 h average): −0.2509; Gene expression data NM_030697 (Ankrd47) (24 h average): 1.3142; Gene expression data NM_053168 (Trim11) (24 h average): −0.02257; Gene expression data NM_134188 (Acot2) (24 h average): 0.1275; Gene expression data Y15910 (Diap2) (24 h average): −0.31; Gene expression AA561726 average (48 h): 0.3473; Gene expression AF000969 average (48 h): 0.6762; Gene expression AF022072 average (48 h): 0.7799; Gene expression AF033112 average (48 h): 0.02593; Gene expression AF055573 average (48 h): 0.0039; Gene expression AF069954 average (48 h): −0.168; Gene expression AF297615 average (48 h): −0.02943; Gene expression AF335325 average (48 h): −0.3547; Gene expression AI594683 average (48 h): −0.1952; Gene expression AI747296 average (48 h): −0.1572; Gene expression AK005731 average (48 h): −0.8953; Gene expression AK007854 average (48 h): 1.0645; Gene expression AK010447 average (48 h): −0.1277; Gene expression AK010738 average (48 h): 0.03457; Gene expression AK014608 average (48 h): −0.3181; Gene expression AK017734 average (48 h): −0.2231; Gene expression AK018383 average (48 h): −0.06343; Gene expression AK019979 average (48 h): −0.6456; Gene expression AV095209 average (48 h): 0.0573; Gene expression AV141095 average (48 h): −0.03573; Gene expression AV173869 average (48 h): −0.3593; Gene expression AV216768 average (48 h): 0.4269; Gene expression AV219418 average (48 h): 0.7223; Gene expression AV221299 average (48 h): 0.3941; Gene expression AV246296 average (48 h): −0.449; Gene expression AV251625 average (48 h): −0.2405; Gene expression AV254764 average (48 h): −0.09113; Gene expression AV327248 average (48 h): −0.1842; Gene expression BB009155 average (48 h): −0.6448; Gene expression BB027848 average (48 h): −0.5634; Gene expression BB043558 average (48 h): 0.03817; Gene expression BB046347 average (48 h): 0.3747; Gene expression BB140436 average (48 h): 0.455; Gene expression BB204486 average (48 h): 0.3211; Gene expression BB223872 average (48 h): −0.2409; Gene expression BB246912 average (48 h): 0.03943; Gene expression BB275142 average (48 h): −0.5307; Gene expression BB458460 average (48 h): −0.2505; Gene expression BB463610 average (48 h): −0.254; Gene expression BB730977 average (48 h): 0.127; Gene expression BB743970 average (48 h): −0.1543; Gene expression BB770528 average (48 h): −0.5238; Gene expression BB781615 average (48 h): −0.3025; Gene expression BC003284 average (48 h): −0.3991; Gene expression BC004827 average (48 h): 0.3832; Gene expression BC005552 average (48 h): 0.365; Gene expression BC006713 average (48 h): 0.1419; Gene expression BC010318 average (48 h): 0.2274; Gene expression BC012247 average (48 h): 0.1853; Gene expression BC012955 average (48 h): 0.25; Gene expression BC013893 average (48 h): −0.5246; Gene expression BC017615 average (48 h): −0.2786; Gene expression BC019379 average (48 h): −0.03313; Gene expression BC019882 average (48 h): −0.02177; Gene expression BC021352 average (48 h): −1.143; Gene expression BC022148 average (48 h): 0.2323; Gene expression BC025169 average (48 h): 0.176; Gene expression BC026131 average (48 h): 0.3886; Gene expression BC027026 average (48 h): 0.3636; Gene expression BC027121 average (48 h): 0.003767; Gene expression BC027185 average (48 h): −0.4317; Gene expression BE956581 average (48 h): 0.1063; Gene expression BF719766 average (48 h): 0.1683; Gene expression BG065754 average (48 h): −0.2692; Gene expression BG066491 average (48 h): −0.6278; Gene expression BG076151 average (48 h): −0.7006; Gene expression BG076333 average (48 h): 0.2569; Gene expression BG797099 average (48 h): −0.3185; Gene expression BG967046 average (48 h): −0.2263; Gene expression BI651416 average (48 h): −0.4982; Gene expression BI966443 average (48 h): 0.1621; Gene expression BM198879 average (48 h): −0.1382; Gene expression BM200015 average (48 h): −0.2469; Gene expression BM230508 average (48 h): −0.6707; Gene expression BM936480 average (48 h): 0.1682; Gene expression BQ174991 average (48 h): 0.5432; Gene expression L21027 average (48 h): 0.4391; Gene expression NM_007556 average (48 h): 0.4673; Gene expression NM_007980 average (48 h): 1.051; Gene expression NM_007987 average (48 h): −0.07343; Gene expression NM_008522 average (48 h): −0.03917; Gene expression NM_008935 average (48 h): 0.5881; Gene expression NM_009897 average (48 h): 0.2468; Gene expression NM_011075 average (48 h): −0.8714; Gene expression NM_011176 average (48 h): −0.3579; Gene expression NM_011316 average (48 h): −0.2485; Gene expression NM_012006 average (48 h): 0.7373; Gene expression NM_013642 average (48 h): 0.7153; Gene expression NM_013738 average (48 h): −0.4434; Gene expression NM_013929 average (48 h): 0.09257; Gene expression NM_018881 average (48 h): 0.2667; Gene expression NM_019738 average (48 h): −0.7691; Gene expression NM_030697 average (48 h): 0.08597; Gene expression NM_053122 average (48 h): −0.1158; Gene expression NM_134147 average (48 h): −0.2048; Gene expression NM_134188 average (48 h): 0.5773; Gene expression X62701 average (48 h): 0.8426
